Results on 26 compounds are retold here after ChEMBL document CHEMBL4028910, “Discovery of Small-Molecule Inhibitors of Ubiquitin Specific Protease 7 (USP7) Using Integrated NMR and in Silico Techniques” (J Med Chem, 2017).

pEC50, pIC50, pKd: −log10 of the molar value.

The target in the first assay is T1, Ubiquitin carboxyl-terminal hydrolase 7 (Homo sapiens, UniProt Q93009). Nature of the assay: Inhibition of native full length C-terminal USP7 (unknown origin) using ubiquitin-Rho110 as substrate incubated for 1 hr by fluorescence assay.
T1 sequence (Q93009 whole entry): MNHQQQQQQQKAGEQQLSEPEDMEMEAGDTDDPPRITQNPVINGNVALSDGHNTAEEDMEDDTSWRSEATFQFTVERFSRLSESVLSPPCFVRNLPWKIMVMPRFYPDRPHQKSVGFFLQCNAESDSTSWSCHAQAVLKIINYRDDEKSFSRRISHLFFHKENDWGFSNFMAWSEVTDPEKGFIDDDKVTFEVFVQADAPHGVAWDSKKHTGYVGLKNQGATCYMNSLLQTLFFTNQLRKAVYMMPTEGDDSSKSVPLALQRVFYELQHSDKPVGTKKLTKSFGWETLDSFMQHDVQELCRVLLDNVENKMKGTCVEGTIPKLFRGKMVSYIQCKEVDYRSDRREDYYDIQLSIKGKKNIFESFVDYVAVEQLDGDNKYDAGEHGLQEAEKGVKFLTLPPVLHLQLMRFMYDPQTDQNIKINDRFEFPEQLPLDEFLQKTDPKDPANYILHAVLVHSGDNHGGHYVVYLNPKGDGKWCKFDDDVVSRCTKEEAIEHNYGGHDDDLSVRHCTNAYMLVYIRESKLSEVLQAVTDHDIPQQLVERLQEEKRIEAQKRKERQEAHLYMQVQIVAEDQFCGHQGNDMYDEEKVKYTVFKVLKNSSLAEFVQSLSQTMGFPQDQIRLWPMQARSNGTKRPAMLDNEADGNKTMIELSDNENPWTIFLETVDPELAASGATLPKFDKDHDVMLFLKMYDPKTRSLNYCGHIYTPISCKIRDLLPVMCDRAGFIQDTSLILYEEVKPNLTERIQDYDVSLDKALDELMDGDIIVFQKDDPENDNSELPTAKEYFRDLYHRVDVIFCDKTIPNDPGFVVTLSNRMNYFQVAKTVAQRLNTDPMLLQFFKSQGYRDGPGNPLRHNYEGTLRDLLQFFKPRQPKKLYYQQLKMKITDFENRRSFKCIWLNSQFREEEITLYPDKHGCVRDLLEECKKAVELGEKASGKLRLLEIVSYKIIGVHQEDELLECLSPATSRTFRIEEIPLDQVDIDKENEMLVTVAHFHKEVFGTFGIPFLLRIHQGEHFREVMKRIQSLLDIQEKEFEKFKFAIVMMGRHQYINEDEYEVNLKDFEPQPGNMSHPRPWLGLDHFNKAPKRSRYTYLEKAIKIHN
For the compound `CC(=O)Nc1cccc(-c2cnc(N)c(-c3ccc(O)cc3)c2)c1`, the pIC50 (in general, −log10 of the IC50, conventionally taken in molar units) is 4.82.
The compound `Nc1nc(N)c(-c2ccc(O)cc2)cc1-c1ccc(O)cc1` showed a negative logarithm of the IC50 (pIC50) of 5.07.
Take `Oc1ccc(-c2nc(C3CCNCC3)co2)cc1`: the negative logarithm of the IC50 (pIC50) is 4.07. This pIC50 lies 1.00 log units lower than the previous one.
In turn, `CCc1c(-c2ccc(O)cc2)cnc(N)c1-c1cccc(C#N)c1` had a pIC50 of 5.28. Against the preceding compound, the pIC50 is 1.21 log units higher.
The compound `CN1CCC(c2noc(-c3ccc(O)cc3)n2)CC1` gave a negative-log IC50 (pIC50) of 4.10.
Same read-out and setting: the value for `CCc1c(-c2ccc3cn[nH]c3c2)cnc(N)c1-c1ccc(O)cc1` was 6.32; that for `CCc1c(-c2ccc(O)cc2)cnc(N)c1-c1ccc(O)cc1` was 5.60.
In the case of `CC(C)c1c(-c2ccc(O)cc2)cnc(N)c1-c1ccc(O)cc1`, the negative-log IC50 (pIC50) was 4.67.
For the compound `Oc1ccc(-c2ncc(C3CCNCC3)o2)c(F)c1`, the negative-log IC50 (pIC50) was 4.74. The pIC50 values of the last two compounds are within 0.2 log units of each other.
`CN1CCC(c2noc(-c3ccc(O)cc3)n2)C1` (stereo unspecified) showed a pIC50 of 3.88.
As to `CCCc1c(-c2ccc(O)cc2)cnc(N)c1-c1ccc(O)cc1`, the pIC50 is 4.87. This pIC50 is 0.99 log units higher than that of the compound before.
As to `CCc1c(-c2ccc(O)cc2)cnc(N)c1-c1ccccc1`, the pIC50 was 4.65.
Regarding `N#Cc1c(-c2ccc(O)cc2)cnc(N)c1-c1ccc(O)cc1`, the pIC50 was less than 3.70.
Compound `Oc1ccc(-c2nc(C3CCNC3)no2)cc1` (stereo unspecified) showed a pIC50 of 3.88.
Compound `Fc1cccc(OCC2CCNCC2)c1` had a pIC50 of less than 2.70.
Compound `CCc1c(-c2ccc(O)cc2)cnc(N)c1-c1ccc2[nH]ncc2c1` gave a negative logarithm of the IC50 (pIC50) of 6.21.
The compound `Nc1ncc(-c2ccccc2Cl)cc1-c1ccc(O)cc1` gave a pIC50 of 4.48.
The same measure, in the same setting: under `CCc1c(-c2ccc(C(=O)NC)nc2)cnc(N)c1-c1ccc(O)cc1` stands 5.87; under `CCc1c(-c2cccc(C#N)c2)cnc(N)c1-c1ccc(O)cc1`, 5.60.
The same measure, in the same setting: the value for `Oc1ccc(-c2nc(C3CCNCC3)no2)cc1` was 4.01; that for `Oc1ccc(-c2ncc(C3CCNCC3)o2)cc1` was 4.48; that for `Nc1ncc(-c2ccc(O)cc2)cc1-c1ccc(O)cc1` was 4.95.
For the compound `Cc1c(-c2ccc(O)cc2)cnc(N)c1-c1ccc(O)cc1`, the pIC50 is 5.12.
The compound `CCc1c(-c2ccccc2)cnc(N)c1-c1ccc(O)cc1` had a pIC50 of 5.02.
`Oc1ccc(-c2cncc(-c3ccc(O)cc3)c2)cc1` had a pIC50 of less than 4.30.

The next assay concerns the target T1, Ubiquitin carboxyl-terminal hydrolase 7. Nature of the assay: Binding affinity to human His-tagged and [15N-13C-2H], delta1[13CH3]-Ile, [13CH3]-Leu/Val and [13CH3]-Met-labeled USP7-catalytic domain (208 to 554 residues) expressed in Escherichia coli Rosetta 2 (DE3) cells by 2D[1H-15N]-based TROSY spectrum NMR analysis.
With `CN1CCC(c2noc(-c3ccc(O)cc3)n2)CC1`, the negative-log Kd (pKd) – broadly, −log10 of the Kd, conventionally taken in molar units – is 4.57 to 4.92.
`Oc1ccc(-c2nc(C3CCNCC3)no2)cc1` showed a pKd of 4.57 to 4.92.

The target is the same in the next assay. The assay is described as follows: Inhibition of USP7 in human SJSA cells assessed as increase in ubiquitinated MDM2 level after 16 hrs in presence of MG132 by MSD assay. Format: cell-based.
Turning to `Nc1nc(N)c(-c2ccc(O)cc2)cc1-c1ccc(O)cc1`, the pEC50 (commonly the EC50 on a negative log10 scale, so that one unit is a factor of ten) is 4.44.
Still for that read-out and setting: under `CCc1c(-c2ccc(O)cc2)cnc(N)c1-c1cccc(C#N)c1` stands 4.43.
With `CCc1c(-c2ccc3[nH]ncc3c2)cnc(N)c1-c1ccc(O)cc1`, the pEC50 was 6.52.
The same measure, in the same setting: under `CCc1c(-c2ccc(C(=O)NC)nc2)cnc(N)c1-c1ccc(O)cc1` stands 5.59.
